# Test results published in US12180226B2, “Spirotricycle RIPK1 inhibitors and methods of uses thereof” (Merck Sharp & Dohme LLC, priority 2021, dated 2024).
# Structures can show the parent of a compound that is named as a salt.
# Molecular target: RIPK1 (recombinant GST-RIPK1 kinase domain, residues 1-327) (Homo sapiens (Human), UniProt Q13546)
# Test: RIPK1-ADP-Glo Enzymatic Assay
# Type: biochemical
# Settings: ADP-Glo; 25 nM GST-RIPK1, 300 μM ATP; assay lower limit ~25 nM; read-out: RIPK1 V0 Ec50
# Description: RIPK1-ADP-Glo Enzymatic Assay
# The enzymatic activity of RIPK1 is measured using an assay derived from ADP-Glo kit (TMPromega), which provides a luminescent-based ADP detection system. Specifically, the ADP generated by RIPK1 kinase is proportionally detected as luminescent signals in a homogenous fashion. In this context, the assessment of the inhibitory effect of small molecules (EC50) is measured by the effectiveness of the compounds to inhibit the ATP to ADP conversion by RIPK1.
# In this assay, the potency (EC50) of each compound was determined from a ten-point (1:3 serial dilution; top compound concentration of 100000 nM) titration curve using the following outlined procedure. The assay bottom or lower limit of confidence is ˜25 nM. To each well of a white ProxiPlus 384 well-plate, 30 nL of compound (1% DMSO in final assay volume of 3 μL) was dispensed, followed by the addition of 2 μL of 1×assay buffer (25 mM Hepes 7.3, 20 mM MgCl2, 50 mM NaCl, 1 mM DTT, 0.005% Tween20, and 0.02% BSA) containing 37.5 nM of GST-RIPK1 (recombinant GST-RIPK1 kinase domain (residues 1-327) enzyme produced from baculovirus-transfected Sf21 cells: MW=62 kDa). Plates were placed in an ambient temperature humidified chamber for a 30-minute pre-incubation with compound. Subsequently, each reaction was initiated by the addition of 1 μL 1×assay buffer containing 900 μM ATP and […] dephosphorylated-MBP substrate. The final reaction in each well of 3 μL consists of 25 nM of GST-RIPK1, 300 μM ATP, and 3 μM dephosphorylated-MBP. Kinase reactions were allowed to proceed for 150 minutes prior to adding ADP-Glo reagents per Promega's outlined kit protocol. Dose-response curves were generated by plotting percent effect (% product conversion; Y-axis) vs. Log10 compound concentrations (X-axis). EC50 values were calculated using a non-linear regression, four-parameters sigmoidal dose-response model.
# Sequence of RIPK1 (recombinant GST-RIPK1 kinase domain, residues 1-327) (Q13546 1-327): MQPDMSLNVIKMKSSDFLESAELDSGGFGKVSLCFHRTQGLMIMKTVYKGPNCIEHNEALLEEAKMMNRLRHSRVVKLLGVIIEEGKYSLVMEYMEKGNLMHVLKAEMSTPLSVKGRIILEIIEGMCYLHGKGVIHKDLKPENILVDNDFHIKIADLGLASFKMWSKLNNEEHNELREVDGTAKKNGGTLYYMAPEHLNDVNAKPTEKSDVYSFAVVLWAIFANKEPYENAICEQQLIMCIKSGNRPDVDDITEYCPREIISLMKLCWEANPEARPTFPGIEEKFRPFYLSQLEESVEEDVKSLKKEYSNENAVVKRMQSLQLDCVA
row,SMILES,EC50 [µM]
1,"O=C1N2[C@@H](CC[C@H]2c2cccc(F)c2)OC12CCN(c1cc(C(F)F)ncn1)CC2 [Example 4.52, (5′S,7a′R)-1-[6-(difluoromethyl)pyrimidin-4-yl]-5′-(3-fluorophenyl)tetrahydro-3′H-spiro[piperidine-4,2′-pyrrolo[2,1-b] [1,3]oxazol]-3′-one]",0.069
2,"N#Cc1cnc(N2CCC3(CC2)S[C@@H]2CC[C@@H](c4ccccc4)N2C3=O)n2ncnc12 [Example 4.146, 5-[(5′S,7a′R)-3′-oxo-5′-phenyltetrahydro-1H,3′H-spiro[piperidine-4,2′-pyrrolo[2,1-b] [1,3]thiazol]-1-yl] [1,2,4]triazolo[1,5-c] pyrimidine-8-carbonitrile]",< 0.025
3,"CC1CC2(CCN1C(=O)c1ncccc1F)O[C@@H]1CC[C@@H](c3cccc(F)c3)N1C2=O (stereo partly drawn) [Example 6.162, (4R,5′S,7a′R)-5′-(3-fluorophenyl)-1-(3-fluoropyridine-2-carbonyl)-2-methyl-tetrahydro-3′H-spiro [piperidine-4,2′-pyrrolo[2,1-b][1,3]oxazol]-3′-one]",0.038
4,"COc1cc(C(=O)N2CCC3(CC2)O[C@@H]2CC[C@@H](c4ccccc4)N2C3=O)ccc1F [Example 6.158, (5′S,7a′R)-1-(4-fluoro-3-methoxybenzene-1-carbonyl)-5′-phenyl-tetrahydro-3′H-spiro [piperidine-4,2′-pyrrolo[2,1-b][1,3]oxazol]-3′-one]",< 0.025
5,"O=C(c1cc(O)ccc1F)N1CCC2(CC1)O[C@@H]1CC[C@@H](c3cc(F)cc(F)c3)N1C2=O [Example 5.57, (5′S,7a′R)-5′-(3,5-difluoro-phenyl)-1-(2-fluoro-5-hydroxybenzoyl)tetra-hydro-3′H-spiro[piperidine-4,2′-pyrrolo[2,1-b]oxazol]-3'-one]",< 0.025
6,"O=C(c1cnn2c1CSCC2)N1CCC2(CC1)O[C@@H]1CC[C@@H](c3cc(F)cc(F)c3)N1C2=O [Example 6.39, (5′S,7a′R)-5′-(3,5-difluorophenyl)-1-(6,7-dihydro-4H-pyrazolo-[5,1-c][1,4]thiazine-3-carbonyl)tetrahydro-3′H-spiro[piperidine-4,2′-pyrrolo[2,1-b] [1,3]oxazol]-3′-one]",0.738
7,"O=C1N2[C@@H](CC[C@H]2c2cc(F)cc(F)c2)OC12CCN(c1ncc(F)c3ncnn13)CC2 [Example 4.90, (5′S,7a′R)-5′-(3,5-difluorophenyl)-1-(8-fluoro-[1,2,4]triazolo [1,5-c]pyrimidin-5-yl)tetrahydro-3′H-spiro[piperidine-4,2′-pyrrolo[2,1-b]oxazol]-3′-one, TFA salt]",0.38
8,"O=C1N2[C@@H](CC[C@H]2c2ccccc2)OC12CCN(c1ncnc3c(F)cnn13)CC2 [Example 4.233, (5′S,7a′R)-1-(8-fluoropyrazolo[1,5-a] [1,3,5]triazin-4-yl)-5′-phenyltetrahydro-3′H-spiro[piperidine-4,2′-pyrrolo[2,1-b] [1,3]oxazol]-3′-one]",< 0.025
9,"O=C(c1ccc(N2CCC3(CC2)O[C@@H]2CC[C@@H](c4ccccc4)N2C3=O)nc1)C(F)F [Example 4.161, (5′S,7a′R)-1-[5-(difluoroacetyl)pyridin-2-yl]-5′-phenyltetrahydro-3′H-spiro[piperidine-4,2′-pyrrolo[2,1-b] [1,3]oxazol]-3′-one]",< 0.025
10,"O=C(c1ccccc1F)N1CCC2(CC1)O[C@@H]1CC[C@@H](c3ccccc3)N1C2=O [Example 1.10, (5′S,7a′R)-1-(2-fluorobenzene-1-carbonyl)-5′-phenyltetrahydro-3′H-spiro[piperidine-4,2′-pyrrolo[2,1-b] [1,3]oxazol]-3′-one]",< 0.025
11,"N#Cc1cnc(N2CCC3(CC2)O[C@@H]2CC[C@@H](c4ccccc4F)N2C3=O)nc1 [Example 4.106, 2-((5′S,7a′R)-5′-(2-fluorophenyl)-3′-oxotetrahydro-3′H-spiro[piperidine-4,2′-pyrrolo[2,1-b]oxazol]-1-yl)pyrimidine-5-carbonitrile]",0.0305
12,"O=C1N2[C@@H](CC[C@H]2c2cnccn2)OC12CCN(c1ccnc3c(F)cnn13)CC2 [Example 4.143, (5′S,7a′R)-1-(3-fluoropyrazolo[1,5-a]pyrimidin-7-yl)-5′-(pyrazin-2-yl)tetrahydro-3′H-spiro[piperidine-4,2′-pyrrolo[2,1-b] [1,3]oxazol]-3′-one]",< 0.025
13,"CCOc1ncccc1C(=O)N1CCC2(CC1)O[C@@H]1CC[C@@H](c3cc(F)cc(F)c3)N1C2=O [Example 6.38, (5′S,7a′R)-5′-(3,5-difluorophenyl)-1-(2-ethoxypyridine-3-carbonyl)tetrahydro-3′H-spiro[piperidine-4,2′-pyrrolo[2,1-b] [1,3]oxazol]-3′-one]",0.867
14,"O=C(c1cc2ccccn2c1)N1CCC2(CC1)O[C@@H]1CC[C@@H](c3cc(F)cc(F)c3)N1C2=O [Example 5.73, (5′S,7a′R)-5′-(3,5-difluoro-phenyl)-1-(indolizine-2-carbonyl)tetrahydro-3′H-spiro[piperidine-4,2′-pyrrolo[2,1-b]oxazol]-3′-one]",< 0.025
15,"N#Cc1ccc(N2CCC3(CC2)S[C@@H]2CC[C@@H](c4ccccc4)N2C3=O)n2nccc12 [Example 4.145, 7-[(5′S,7a′R)-3′-oxo-5′-phenyltetrahydro-1H,3′H-spiro[piperidine-4,2′-pyrrolo[2,1-b] [1,3]thiazol]-1-yl]pyrazolo[1,5-a] pyridine-4-carbonitrile]",< 0.025
16,"O=C(C1CCCCC1)N1CCC2(CC1)O[C@@H]1CC[C@@H](c3cc(F)cc(F)c3)N1C2=O [Example 5.7, (5′S,7a′R)-1-(cyclohexane-carbonyl)-5′-(3,5-difluoro-phenyl)tetrahydro-3′H-spiro[piperidine-4,2′-pyrrolo[2,1-b][1,3]oxazol]-3′-one]",0.236

# Second part, the compound after the results:
row,EC50 [µM],SMILES
1,< 0.025,"N#Cc1ccc(F)c([C@@H]2CC[C@H]3OC4(CCN(c5ccnc6c(F)cnn56)CC4)C(=O)N32)c1 [Example 20.4, 4-fluoro-3-[(5′S,7a′R)-1-(3-fluoropyrazolo[1,5-a]pyrimidin-7-yl)-3′-oxotetrahydro-3′H-spiro[piperidine-4,2′-pyrrolo[2,1-b][1,3]oxazol]-5′-yl]benzonitrile]"
2,0.032,"O=C1N2[C@@H](CC[C@H]2c2cc(F)cc(F)c2)OC12CCN(c1ccc(Cl)c3nccn13)CC2 [Example 13.16, (5′S,7a′R)-1-(8-chloroimidazo[1,2-a]pyridin-5-yl)-5′-(3,5-difluorophenyl)tetrahydro-3′H-spiro[piperidine-4,2′-pyrrolo[2,1-b]oxazol]-3′-one, TFA salt]"
3,0.355,"O=C1N2C(=NC13CCN(c1cc(-c4cnn(C(F)F)c4)ncn1)CC3)CC[C@H]2c1cc(F)cc(F)c1 [Example 10.3, (S)-1-(6-(1-(difluoromethyl)-1H-pyrazol-4-yl)pyrimidin-4-yl)-5′-(3,5-difluorophenyl)-6′,7′-dihydro-3′H,5′H-spiro[piperidine-4,2′-pyrrolo[1,2-a]imidazol]-3′-one]"
4,0.319,"Cc1nc(N2CCC3(CC2)O[C@@H]2CC[C@@H](c4ccccc4)N2C3=O)sc1C [Example 11.32, (5′S,7a′R)-1-(4,5-dimethyl-1,3-thiazol-2-yl)-5′-phenyltetrahydro-3′H-spiro[piperidine-4,2′-pyrrolo[2,1-b][1,3]oxazol]-3′-one]"
5,0.0726,"CS(=O)(=O)C1CN(C(=O)c2nc(N3CCC4(CC3)O[C@@H]3CC[C@@H](c5cc(F)cc(F)c5)N3C4=O)ncc2F)C1 [Example 7.9, (5′S,7a′R)-5′-(3,5-difluorophenyl)-1-{5-fluoro-4-[3-(methylsulfonyl)azetidine-1-carbonyl]pyrimidin-2-yl}tetrahydro-3′H-spiro[piperidine-4,2′-pyrrolo[2,1-b][1,3]oxazol]-3′-one]"
6,< 0.025,"O=C1N2[C@@H](CC[C@H]2c2ccccc2F)OC12CCN(c1ccnc(-c3cnn(C(F)F)c3)c1)CC2 [Example 10.4, (5′S,7a′R)-1-{2-[1-(difluoromethyl)-1H-pyrazol-4-yl]pyridin-4-yl}-5′-(2-fluorophenyl)tetrahydro-3′H-spiro[piperidine-4,2′-pyrrolo[2,1-b][1,3]oxazol]-3′-one]"
7,< 0.025,"Cn1nc(C(F)(F)F)cc1-c1ccc(N2CCC3(CC2)O[C@@H]2CC[C@@H](c4ccccc4)N2C3=O)n2ncnc12 [Example 21.20, (5′S,7a′R)-1-{8-[1-methyl-3-(trifluoromethyl)-1H-pyrazol-5-yl][1,2,4]triazolo[1,5-a]pyridin-5-yl}-5′-phenyltetrahydro-3′H-spiro[piperidine-4,2′-pyrrolo[2,1-b][l,3]oxazol]-3′-one]"
8,< 0.025,"N#Cc1cccc([C@@H]2CC[C@H]3OC4(CCN(c5ccnc6c(F)cnn56)CC4)C(=O)N32)c1F [Example 20.5, 2-fluoro-3-[(5′S,7a′R)-1-(3-fluoropyrazolo[1,5-a]pyrimidin-7-yl)-3′-oxotetrahydro-3′H-spiro[piperidine-4,2′-pyrrolo[2,1-b][1,3]oxazol]-5′-yl]benzonitrile]"
